Laboratory results reported in publication PMC11839852, “Preclinical comparison of (radio)lanthanides using mass spectrometry and nuclear imaging techniques: biodistribution of lanthanide-based tumor-targeting agents and lanthanides in ionic form” (European Journal of Nuclear Medicine and Molecular Imaging, 2024).
Where two headings read alike, the source gives them in different places. Where a SMILES comes first, the peptide text is derived from it. Bridges are numbered along the chain shown (N, C = ends). [ ]: non-standard residue; d: D form. The star is where a group is joined. DOTA = O=C(O)CN1CCN(CC(=O)O)CCN(CC(=O)*)CCN(CC(=O)O)CC1; dPhe(4-NHCONH2) = NC(=O)Nc1ccc(C[C@@H](N)C(=O)O)cc1; Phe(4-Cl) = N[C@@H](Cc1ccc(Cl)cc1)C(=O)O

Columns and labels:
[1] = design: method as in doi:10.1007/BF02040048, PMID 16411740, PMID 16644751; settings: coordination with DOTA chelator; cited from earlier work
[2] = tested on: non-tumor-bearing immunocompetent FVB mice; experiment: Biodistribution of Ln-DTPA complexes (multiplexed ICP-MS); settings: 1 h p.i.
[3] = tested on: AR42J, PC-3 PIP and KB tumor cells; experiment: In vitro cell uptake of Ln-DTPA complexes; type: cell-based; settings: all tumor cell lines, 1 h and 4 h incubation
Description: A mixture of equal molar amounts of the lanthanide chloride salts (100 nM stock solutions of ^natLuCl3, ^natTbCl3, ^natGdCl3, and ^natEuCl3, diluted in saline with an adjusted pH value to 3.5‒4.0) was prepared to obtain a final concentration of 10 pmol/mL (2.5 pmol/mL per lanthanide salt) and tested with AR42J, PC-3 PIP and KB tumor cells according to the same protocol as described for the Ln-labeled biomolecules (Supplementary Material). Analogous in vitro cell uptake studies were also performed with lanthanide metal complexes of diethylenetriaminepentaacetic acid (DTPA, Sigma Aldrich Chemie, Steinheim, Germany) to obtain a final concentration of 10 pmol/mL (2.5 pmol/mL per lanthanide complex) (Supplementary Material).
Methods: The same experimental setting as described for Ln-labeled biomolecules was applied to perform uptake and internalization studies with the lanthanide DTPA complexes (Ln-DTPA; Ln = ^natLu, ^natTb, ^natGd and ^natEu). The lanthanides were dissolved in 0.05 M hydrochloric acid and further diluted in a 1:5 (v/v) mixture of sodium acetate (0.5 M) and hydrochloric acid (0.05 M), pH ~4.5. A 10-fold molar excess of DTPA (5 mM, aq.) was added to each lanthanide dilution and the reaction mixtures were incubated for 10 min at 95 °C. The complexed lanthanides were further diluted in saline with an adjusted pH value to 3.5-4.0 for in vitro experiments. The applied solution was a mixture of the four Ln-DTPA complexes at a final concentration of 0.4 µM. Of these mixtures, 25 μL were added to the well with the corresponding tumor cells. The tumor cells were incubated for 1 h and 4 h, respectively, at 37 °C and 5% CO2. After incubation, the tumor cells were treated as described for the Ln-labeled biomolecules and processed for the measurement with ICP-MS.

[4] = tested on: non-tumor-bearing immunocompetent FVB mice; settings: mouse, in vivo, 1 h
[5] = Biodistribution of Ln-DOTATATE and Ln-DOTA-LM3 (multiplexed ICP-MS); settings: female, CD1 nude, mouse, intravenous, 0.5 nmol, AR42J tumor-bearing mice; for tissue uptake at 1 h: 1 h p.i.; for tissue uptake at 24 h: 24 h p.i.
[6] = AR42J tumor, Tissue uptake: AR42J tumor
[7] = intestines, Tissue uptake: Intestines
[8] = kidneys, Tissue uptake: Kidneys
[9] = pancreas, Tissue uptake: Pancreas
[10] = salivary glands, Tissue uptake: Salivary glands

Q: With `O=C([O-])CN1CCN(CC(=O)[O-])CCN(CC(=O)[O-])CCN(CC(=O)[O-])CC1.[Eu+3]` [Eu-DOTA] as the compound, how does the logK [1] read?
A: 23.4

Q: For `O=C([O-])CN1CCN(CC(=O)[O-])CCN(CC(=O)[O-])CCN(CC(=O)[O-])CC1.[Tb+3]` [Tb-DOTA], which logK [1] is on record?
A: 24.2

Q: For `O=C([O-])CN(CCN(CC(=O)[O-])CC(=O)[O-])CCN(CC(=O)[O-])CC(=O)[O-].[Lu+3]` [[^175Lu]Lu-DTPA], which “Tissue uptake: Blood” value [2] is on record?
A: <0.5 % ID/g

Q: What about the “Tissue uptake: Bone” value [2] of the same compound?
A: <0.5 % ID/g

Q: What about the “Tissue uptake: Brain” value [2] of the same compound?
A: <0.5 % ID/g

Q: And the “Tissue uptake: Heart” value [2]?
A: <0.5 % ID/g

Q: And the “Tissue uptake: Intestines” value [2]?
A: <0.5 % ID/g

Q: And the “Tissue uptake: Kidneys” value [2]?
A: 2.3 ± 1.0 % ID/g

Q: And the “Tissue uptake: Liver” value [2]?
A: <0.5 % ID/g

Q: And the “Tissue uptake: Lung” value [2]?
A: <0.5 % ID/g

Q: What about the “Tissue uptake: Muscle” value [2] of the same compound?
A: <0.5 % ID/g

Q: And the “Tissue uptake: Pancreas” value [2]?
A: <0.5 % ID/g

Q: What about the “Tissue uptake: Salivary glands” value [2] of the same compound?
A: <0.5 % ID/g

Q: And the “Tissue uptake: Spleen” value [2]?
A: <0.5 % ID/g

Q: And the “Tissue uptake: Stomach” value [2]?
A: <0.5 % ID/g

Q: And the “Lanthanide detected in cell samples (background levels)” value (from here on “Lanthanide detected in cell samples”) [3]?
A: < 20 ppt

Q: With `O=C([O-])CN(CCN(CC(=O)[O-])CC(=O)[O-])CCN(CC(=O)[O-])CC(=O)[O-].[Tb+3]` [[^159Tb]Tb-DTPA] as the compound, how does the “Tissue uptake: Blood” value [2] read?
A: <0.5 % ID/g

Q: What about the “Tissue uptake: Bone” value [2] of the same compound?
A: <0.5 % ID/g

Q: What about the “Tissue uptake: Brain” value [2] of the same compound?
A: <0.5 % ID/g

Q: And the “Tissue uptake: Heart” value [2]?
A: <0.5 % ID/g

Q: And the “Tissue uptake: Intestines” value [2]?
A: <0.5 % ID/g

Q: What about the “Tissue uptake: Kidneys” value [2] of the same compound?
A: 2.1 ± 1.0 % ID/g

Q: And the “Tissue uptake: Liver” value [2]?
A: <0.5 % ID/g

Q: What about the “Tissue uptake: Lung” value [2] of the same compound?
A: <0.5 % ID/g

Q: And the “Tissue uptake: Muscle” value [2]?
A: <0.5 % ID/g

Q: What about the “Tissue uptake: Pancreas” value [2] of the same compound?
A: <0.5 % ID/g

Q: And the “Tissue uptake: Salivary glands” value [2]?
A: <0.5 % ID/g

Q: And the “Tissue uptake: Spleen” value [2]?
A: <0.5 % ID/g

Q: What about the “Tissue uptake: Stomach” value [2] of the same compound?
A: <0.5 % ID/g

Q: What about the “Lanthanide detected in cell samples” value [3] of the same compound?
A: < 20 ppt

Q: For `O=C([O-])CN(CCN(CC(=O)[O-])CC(=O)[O-])CCN(CC(=O)[O-])CC(=O)[O-].[Gd+3]` [[^157Gd]Gd-DTPA], which “Tissue uptake: Blood” value [4] is on record?
A: <0.5 % ID/g

Q: And the “Tissue uptake: Bone” value [4]?
A: <0.5 % ID/g

Q: What about the “Tissue uptake: Brain” value [4] of the same compound?
A: <0.5 % ID/g

Q: And the “Tissue uptake: Heart” value [4]?
A: 0.55 ± 0.06 % ID/g

Q: And the “Tissue uptake: Intestines” value [4]?
A: <0.5 % ID/g

Q: What about the “Tissue uptake: Kidneys” value [4] of the same compound?
A: 2.1 ± 0.9 % ID/g

Q: What about the “Tissue uptake: Liver” value [4] of the same compound?
A: <0.5 % ID/g

Q: What about the “Tissue uptake: Lung” value [4] of the same compound?
A: 0.56 ± 0.12 % ID/g

Q: What about the “Tissue uptake: Muscle” value [4] of the same compound?
A: 0.51 ± 0.07 % ID/g

Q: And the “Tissue uptake: Pancreas” value [4]?
A: <0.5 % ID/g

Q: And the “Tissue uptake: Salivary glands” value [4]?
A: <0.5 % ID/g

Q: And the “Tissue uptake: Spleen” value [4]?
A: 0.52 ± 0.03 % ID/g

Q: And the “Tissue uptake: Stomach” value [4]?
A: 0.77 ± 0.17 % ID/g

Q: What about the “Lanthanide detected in cell samples” value [3] of the same compound?
A: < 60 ppt

Q: For `O=C([O-])CN1CCN(CC(=O)[O-])CCN(CC(=O)[O-])CCN(CC(=O)[O-])CC1.[Lu+3]` [Lu-DOTA], which logK [1] is on record?
A: 25.4

Q: Which logK [1] does the source give for `O=C([O-])CN1CCN(CC(=O)[O-])CCN(CC(=O)O)CCN(CC(=O)[O-])CC1.[Gd+3]` [Gd-DOTA] here?
A: 24.6

Q: What does the source list for `O=C([O-])CN(CCN(CC(=O)[O-])CC(=O)[O-])CCN(CC(=O)[O-])CC(=O)[O-].[Eu+3]` [[^153Eu]Eu-DTPA]?
A: Tissue uptake: Blood [2]: <0.5 % ID/g; Tissue uptake: Bone [2]: <0.5 % ID/g; Tissue uptake: Brain [2]: <0.5 % ID/g; Tissue uptake: Heart [2]: <0.5 % ID/g; Tissue uptake: Intestines [2]: <0.5 % ID/g; Tissue uptake: Kidneys [2]: 2.1 ± 1.0 % ID/g; Tissue uptake: Liver [2]: <0.5 % ID/g; Tissue uptake: Lung [2]: <0.5 % ID/g; Tissue uptake: Muscle [2]: <0.5 % ID/g; Tissue uptake: Pancreas [2]: <0.5 % ID/g; Tissue uptake: Salivary glands [2]: <0.5 % ID/g; Tissue uptake: Spleen [2]: <0.5 % ID/g; Tissue uptake: Stomach [2]: 0.51 ± 0.07 % ID/g; Lanthanide detected in cell samples (background levels) [3]: < 20 ppt

Q: With `C[C@@H](O)[C@@H]1NC(=O)[C@H](CCCCN)NC(=O)[C@@H](Cc2ccc(NC(N)=O)cc2)NC(=O)[C@H](Cc2ccc(O)cc2)NC(=O)[C@H](NC(=O)[C@H](Cc2ccc(Cl)cc2)NC(=O)CN2CCN(CC(=O)O)CCN(CC(=O)O)CCN(CC(=O)O)CC2)CSSC[C@@H](C(=O)N[C@H](Cc2ccc(O)cc2)C(N)=O)NC1=O` [[^175Lu]Lu-DOTA-LM3] ({DOTA}-[Phe(4-Cl)][dC]Y[dPhe(4-NHCONH2)]KTC[dY]-NH2; disulfide 2-7 (inferred); C-terminus assumed) as the compound, how does the tissue uptake at 1 h [5, 6] read?
A: 4.5 ± 0.2 %ID/g

Q: What about the tissue uptake at 24 h [5, 6] of the same compound?
A: 2.7 ± 0.3 %ID/g

Q: What about the tissue uptake at 1 h ([5]; blood, Tissue uptake: Blood) of the same compound?
A: 0.51 ± 0.1 %ID/g

Q: What about the tissue uptake at 24 h ([5]; blood, Tissue uptake: Blood) of the same compound?
A: < 0.5 %ID/g

Q: What about the tissue uptake at 1 h ([5]; bone, Tissue uptake: Bone) of the same compound?
A: < 0.5 %ID/g

Q: What about the tissue uptake at 24 h ([5]; bone, Tissue uptake: Bone) of the same compound?
A: < 0.5 %ID/g

Q: And the tissue uptake at 1 h ([5]; brain, Tissue uptake: Brain)?
A: < 0.5 %ID/g

Q: And the tissue uptake at 24 h ([5]; brain, Tissue uptake: Brain)?
A: < 0.5 %ID/g

Q: What about the tissue uptake at 1 h ([5]; heart, Tissue uptake: Heart) of the same compound?
A: < 0.5 %ID/g

Q: And the tissue uptake at 24 h ([5]; heart, Tissue uptake: Heart)?
A: < 0.5 %ID/g

Q: And the tissue uptake at 1 h [5, 7]?
A: 0.6 ± 0.24 %ID/g

Q: What about the tissue uptake at 24 h [5, 7] of the same compound?
A: < 0.5 %ID/g

Q: And the tissue uptake at 1 h [5, 8]?
A: 11 ± 1 %ID/g

Q: What about the tissue uptake at 24 h [5, 8] of the same compound?
A: 4.8 ± 0.5 %ID/g

Q: What about the tissue uptake at 24 h ([5]; liver, Tissue uptake: Liver) of the same compound?
A: < 0.5 %ID/g

Q: What about the tissue uptake at 24 h ([5]; lung, Tissue uptake: Lung) of the same compound?
A: < 0.5 %ID/g

Q: What about the tissue uptake at 1 h ([5]; muscle, Tissue uptake: Muscle) of the same compound?
A: < 0.5 %ID/g

Q: What about the tissue uptake at 24 h ([5]; muscle, Tissue uptake: Muscle) of the same compound?
A: < 0.5 %ID/g

Q: And the tissue uptake at 1 h [5, 9]?
A: 1.1 ± 0.1 %ID/g

Q: What about the tissue uptake at 24 h [5, 9] of the same compound?
A: 0.51 ± 0.17 %ID/g

Q: And the tissue uptake at 1 h [5, 10]?
A: < 0.5 %ID/g

Q: What about the tissue uptake at 24 h [5, 10] of the same compound?
A: < 0.5 %ID/g

Q: And the tissue uptake at 1 h ([5]; spleen, Tissue uptake: Spleen)?
A: < 0.5 %ID/g

Q: What about the tissue uptake at 24 h ([5]; spleen, Tissue uptake: Spleen) of the same compound?
A: < 0.5 %ID/g

Q: What about the tissue uptake at 1 h ([5]; stomach, Tissue uptake: Stomach) of the same compound?
A: 1.3 ± 0.2 %ID/g
